Test results as given in US10098852B2 (LAUNX BIOMEDICAL CO., LTD., priority 2014, dated 2018).
Like-named read-outs stand apart in the source and are kept apart here.

Columns and labels:
Type in all cases: cell-based
[1] = tested on: gastric cancer cell; experiment: Summary of the effect on gastric cancer cell (AGS, MKN-45); conditions: Homo sapiens, gastric cancer cell (mean of AGS and MKN-45 averages), 72 hours, read-out: Inhibitory effect
Procedure: (§1) Removing the original culture medium from 96-well plate. Then add 100 μl of commercially drug at a concentration of 10 μM per well. After 72 hours, add the diluted WST-1 reagent to the well with 100 μl/well, and the diluted WST-1 reagent was acquired from the dilution of 9:1 medium and WST-1 stock reagent. Finally, the total volume of each well was 200 μl/well. Culture the 96-well plate at 37° C. for 30 to 90 minutes. Detecting and calculate the survival rate of each cancer cells with an ELISA reader at OD450 nm.

[2] = tested on: LoVo (Colorectal Adenocarcinoma); experiment: Cell viability analysis (WST-1), colorectal cancer cell line LoVo; conditions: Homo sapiens
Procedure: (§2) The cell numbers were counted and reseed as 2×10^6 in cell culture plate/flask. Then, the culture medium was added to a volume of 10 ml, and the cells were cultured for 2-3 days. Then, the cells were suspended for loading into 96-well plates. The cell number was 3000/well and the volume of the culture medium was 100 μl each well.
as §1

[3] = tested on: HCT116-wt (colorectal carcinoma); experiment: Cell viability analysis (WST-1), colorectal cancer cell line HCT116-wt
Procedure: as §2, §1

[4] = tested on: bladder cancer cell; experiment: Summary of the effect on bladder cancer cell (TSGH, T24); conditions: bladder cancer cell (mean of TSGH and T24 averages), 72 hours, read-out: Inhibitory effect
Procedure: as §1

[5] = tested on: prostate cancer cell; experiment: Summary of the effect on prostate cancer cell (PC-3, LNCap); conditions: Homo sapiens, prostate cancer cell (mean of PC-3 and LNCap averages), 72 hours, read-out: Inhibitory effect
Procedure: as §1

[6] = tested on: skin cancer cell; experiment: Summary of the effect on skin cancer cell (A375, BCC); conditions: Homo sapiens, A-375, skin cancer cell (mean of A375 and BCC averages), 72 hours, read-out: Inhibitory effect
Procedure: as §1

[7] = tested on: HeLa (Cervix Adenocarcinoma); experiment: Cell viability analysis (WST-1), cervical cancer cell line HeLa; conditions: Homo sapiens
Procedure: as §2, §1

[8] = Cell viability analysis (WST-1), normal pulmonary epithelial cell line BEAS-2B; conditions: human, BEAS-2B normal pulmonary epithelial cells, BEAS-2B normal cells
Source text: Subculture the different types of cancer cells. The cancer cells lines includes lung cancer, gastric cancer, hepatic cancer, colon cancer, skin cancer, cervical cancer, prostate cancer, bladder cancer, breast cancer, leukemia, pancreatic cancer, ovarian cancer, tongue cancer, osteosarcoma, and renal cancer. The normal cells used in the control group included kidney cell line (HEK293) and human bronchial epithelial cell line BEAS-2B.
as §2, §1

[9] = tested on: C-33A (Cervical carcinoma); experiment: Cell viability analysis (WST-1), cervical cancer cell line C-33A; conditions: Homo sapiens, 72 h
Procedure: as §2, §1

[10] = tested on: lung cancer cell; experiment: Summary of the effect on lung cancer cell (A549, H1650); conditions: lung cancer cell (mean of A549 and H1650 averages), 72 hours, read-out: Inhibitory effect
Procedure: as §1

[11] = tested on: colorectal cancer cell; experiment: Summary of the effect on colorectal cancer cell (HCT116-wt, LoVo); conditions: Homo sapiens, colorectal cancer cell (mean of HCT116-wt and LoVo averages), 72 hours, read-out: Inhibitory effect
Procedure: as §1

[12] = tested on: U2OS (osteosarcoma cell line); experiment: Cell viability analysis (WST-1), osteosarcoma cell line U2OS; conditions: Homo sapiens
Procedure: as §2, §1

[13] = tested on: 786-O (Renal adenocarcinoma); experiment: Cell viability analysis (WST-1), renal cancer cell line 786-O; conditions: Homo sapiens
Procedure: as §2, §1

[14] = tested on: PC-3 (Prostate adenocarcinoma); experiment: Cell viability analysis (WST-1), prostate cancer cell line PC-3; conditions: PC-3, 10 μM
Procedure: as §2, §1

[15] = tested on: breast cancer cell; experiment: Summary of the effect on breast cancer cell (MCF7, MDA-MB-231); conditions: breast cancer cell (mean of MCF7 and MDA-MB-231 averages), 72 hours, read-out: Inhibitory effect
Procedure: as §1

[16] = tested on: TOV-21G (ovarian cancer cell line); experiment: Cell viability analysis (WST-1), ovarian cancer cell line TOV-21G; conditions: Homo sapiens, TOV21G
Procedure: as §2, §1

[17] = Cell viability analysis (WST-1), normal kidney cell line HEK293; conditions: human, HEK293 normal kidney cells
Procedure: as §2, §1

[18] = tested on: normal cells; experiment: Toxicity to normal cells (overall statement)
[19] = tested on: H1650 (lung adenocarcinoma); experiment: Cell viability analysis (WST-1), lung cancer cell line H1650; conditions: Homo sapiens
Procedure: as §2, §1

[20] = 72 h, average of 4 tests, read-out: inhibition effect (survival rate of cells), average
[21] = average of 4 tests, read-out: inhibition effect (survival rate of cells), average

Oc1ccc(OCc2ccccc2)cc1 [Monobenzone]
viability at 10 µM [1]: 82.8% | viability at 10 µM [2, 20]: 83% | viability at 10 µM ([2]; 72 hours, test 0616-10 min, read-out: inhibition effect (survival rate of cells)): 82.3% | viability at 10 µM ([2]; 72 hours, test 0619-10 min, read-out: inhibition effect (survival rate of cells)): 73.9% | viability at 10 µM ([2]; 72 hours, test 0621-10 min, read-out: inhibition effect (survival rate of cells)): 94.7% | viability at 10 µM ([2]; 72 hours, test 0623-10 min, read-out: inhibition effect (survival rate of cells)): 81.3% | viability at 10 µM [3, 20]: 95% | viability at 10 µM ([3]; 72 hours, test 0602-30 min, read-out: inhibition effect (survival rate of cells)): 91.1% | viability at 10 µM ([3]; 72 hours, test 0605-10 min, read-out: inhibition effect (survival rate of cells)): 104% | viability at 10 µM ([3]; 72 hours, test 0607-10 min, read-out: inhibition effect (survival rate of cells)): 99.9% | viability at 10 µM ([3]; 72 hours, test 0609-10 min, read-out: inhibition effect (survival rate of cells)): 85.3% | viability at 10 µM [4]: 85.8% | viability at 10 µM [5]: 65.2% | viability at 10 µM [6]: 63.2% | viability at 10 µM [7, 20]: 80.1% | viability at 10 µM ([7]; 72 hours, test 0524-10 min, read-out: inhibition effect (survival rate of cells)): 82.8% | viability at 10 µM ([7]; 72 hours, test 0526-10 min, read-out: inhibition effect (survival rate of cells)): 72.8% | viability at 10 µM ([7]; 72 hours, test 0529-10 min, read-out: inhibition effect (survival rate of cells)): 82.7% | viability at 10 µM ([7]; 72 hours, test 0531-10 min, read-out: inhibition effect (survival rate of cells)): 81.9% | viability at 72 h, 10 µM [8, 21]: 73.8% | viability at 72 h, 10 µM ([8]; test 0510-10 min, read-out: inhibition effect (survival rate of cells)): 84.7% | viability at 72 h, 10 µM ([8]; test 0512-10 min, read-out: inhibition effect (survival rate of cells)): 79.5% | viability at 72 h, 10 µM ([8]; test 0515-10 min, read-out: inhibition effect (survival rate of cells)): 74.9% | viability at 72 h, 10 µM ([8]; test 0517-10 min, read-out: inhibition effect (survival rate of cells)): 56.2% | viability at 10 µM [9, 21]: 62.3% | viability at 10 µM ([9]; test 1, read-out: inhibition effect (survival rate of cells)): 57.9% | viability at 10 µM ([9]; test 2, read-out: inhibition effect (survival rate of cells)): 66.2% | viability at 10 µM ([9]; test 3, read-out: inhibition effect (survival rate of cells)): 61% | viability at 10 µM ([9]; test 4, read-out: inhibition effect (survival rate of cells)): 64.3% | viability at 10 µM [10]: 89.8% | viability at 10 µM [11]: 89% | viability at 10 µM [12, 20]: 72.7% | viability at 10 µM ([12]; 72 h, osteosarcoma cell (U2OS average), read-out: Inhibitory effect): 72.7% | viability at 10 µM ([12]; 72 hours, test 6-26-10 min, read-out: inhibition effect (survival rate of cells)): 69.3% | viability at 10 µM ([12]; 72 hours, test 6-28-10 min, read-out: inhibition effect (survival rate of cells)): 66.7% | viability at 10 µM ([12]; 72 hours, test 6-30-10 min, read-out: inhibition effect (survival rate of cells)): 73% | viability at 10 µM ([12]; 72 hours, test 7-3-10 min, read-out: inhibition effect (survival rate of cells)): 81.7% | viability at 10 µM ([13]; 786-0, 786-O, 72 hours, test 0524-10 min, read-out: inhibition effect (survival rate of cells)): 39.8% | viability at 10 µM ([13]; 786-0, 786-O, 72 hours, test 0526-10 min, read-out: inhibition effect (survival rate of cells)): 32.4% | viability at 10 µM ([13]; 786-0, 786-O, 72 hours, test 0529-10 min, read-out: inhibition effect (survival rate of cells)): 21.2% | viability at 10 µM ([13]; 786-0, 786-O, 72 hours, test 0531-10 min, read-out: inhibition effect (survival rate of cells)): 23.4% | viability at 10 µM ([13]; 786-0, 72 h, 786-O, average of 4 tests, read-out: inhibition effect (survival rate of cells), average): 29.2% | viability at 10 µM ([13]; 786-0, 72 h, Kidney cancer cell (786-O average), read-out: Inhibitory effect): 29.2% | viability at 10 µM [14, 20]: 62.5% | viability at 10 µM ([14]; 72 hours, test PC-3-0524-10 min, read-out: inhibition effect (survival rate of cells)): 57% | viability at 10 µM ([14]; 72 hours, test PC-3-0526-10 min, read-out: inhibition effect (survival rate of cells)): 70.6% | viability at 10 µM ([14]; 72 hours, test PC-3-0529-10 min, read-out: inhibition effect (survival rate of cells)): 63.2% | viability at 10 µM ([14]; 72 hours, test PC-3-0531-10 min, read-out: inhibition effect (survival rate of cells)): 59% | viability at 10 µM [15]: 87.9% | viability at 10 µM [16, 20]: 78.4% | viability at 10 µM ([16]; 72 hours, test 7-3-30 min, read-out: inhibition effect (survival rate of cells)): 93.9% | viability at 10 µM ([16]; 72 hours, test 7-4-30 min, read-out: inhibition effect (survival rate of cells)): 78.4% | viability at 10 µM ([16]; 72 hours, test 7-7-30 min, read-out: inhibition effect (survival rate of cells)): 69.6% | viability at 10 µM ([16]; 72 hours, test −4-30 min, read-out: inhibition effect (survival rate of cells)): 71.6% | viability at 72 h, 10 µM [17, 21]: 93% | viability at 72 h, 10 µM ([17]; test 0602-30 min, read-out: inhibition effect (survival rate of cells)): 82.7% | viability at 72 h, 10 µM ([17]; test 0605-30 min, read-out: inhibition effect (survival rate of cells)): 99.4% | viability at 72 h, 10 µM ([17]; test 0607-30 min, read-out: inhibition effect (survival rate of cells)): 97.9% | viability at 72 h, 10 µM ([17]; test 0609-30 min, read-out: inhibition effect (survival rate of cells)): 91.8% | toxicity to normal cells (in words) [18]: no toxicity or had little toxicity to normal cells | viability at 10 µM ([19]; NCI-H1650, 72 h, H1650, 10 μM, average of 4 tests, read-out: inhibition effect (survival rate of cells), Average): 86.3% | viability at 10 µM ([19]; NCI-H1650, H1650, 10 μM, 72 hours, test 1-10 min, read-out: inhibition effect (survival rate of cells)): 90.1% | viability at 10 µM ([19]; NCI-H1650, H1650, 10 μM, 72 hours, test 2-20 min, read-out: inhibition effect (survival rate of cells)): 66.6% | viability at 10 µM ([19]; NCI-H1650, H1650, 10 μM, 72 hours, test 3-20 min, read-out: inhibition effect (survival rate of cells)): 86.7% | viability at 10 µM ([19]; NCI-H1650, H1650, 10 μM, 72 hours, test 4-20 min, read-out: inhibition effect (survival rate of cells)): 102%
